This is an account of results in PubChem BioAssay (NCI).

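A five-concentration, 48-hour dose response in 96-well plates underlies each endpoint, interpolated linearly between surrounding concentrations. At the TGI there is no net growth.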

Assay in all cases: growth of human tumour cells (NCI), 48 h
Test [1] concerns A498 renal.
The subject of test [2] is CCRF-CEM leukemia.
Test [3] has as its system EKVX NSCLC.
Test [4] has as its system HCT-15 colon.
Test [5] has as its system HL-60(TB) leukemia.
Test [6] has as its system HOP-92 NSCLC.
Test [7] deals with M14 melanoma.
Test [8] deals with MCF7 breast.
The test system of test [9] is MDA-N.
The test system of test [10] is MOLT-4 leukemia.
For test [11], the system named is NCI/ADR-RES ovarian.
For test [12], the system named is OVCAR-4 ovarian.
The subject of test [13] is PC-3 prostate.
The test system of test [14] is RPMI-8226 leukemia.
Test [15] concerns SNB-75 CNS.

As to `COc1ccc(C(=O)N(Cc2cccnc2)C(=S)N(Cc2cccnc2)C(=O)c2ccc(OC)cc2)cc1`, the TGI in [1], in [2], in test [3], in test [4], in [5] and in [6] was greater than 100 µM each time. Also, the TGI in test [7], in test [8], in test [9], in [10], in test [11] and in test [12] was greater than 100 µM in each case. In addition, the TGI in test [13] is greater than 100 µM; in [14] it was greater than 100 µM; in test [15], 42.9 µM.

On to `COC(=O)[C@]1(Cc2ccc3ccccc3c2)CCCCCCN1C(=O)c1ccccc1`, for which the TGI in [1] was greater than 51.5 µM; in [2], greater than 53.7 µM; in test [3] it was greater than 50.9 µM; in test [4] it was greater than 47.1 µM; in test [5] it was greater than 40.4 µM; in test [6] it was greater than 52.9 µM. For the same molecule, the TGI in test [7] is greater than 52.7 µM; in test [8], greater than 49.1 µM; in [9] it was greater than 53.5 µM; in test [10], greater than 47.7 µM; in test [11] it was greater than 49.7 µM; in test [12], 26 µM. Besides, the TGI is greater than 45.7 µM in test [13], 17.9 µM in test [14] and 54.7 µM in test [15].

Take `Cc1nn(C(=O)c2ccncc2)c2c1C(c1ccc([N+](=O)[O-])cc1)SC(N)=N2` (stereo not given): the TGI in test [1], in test [2], in [3], in test [4], in test [5] and in test [6] was greater than 100 µM each time. Also, the TGI in test [7], in [8], in test [9], in test [10], in [11] and in [12] was greater than 100 µM throughout. The TGI in test [13], in test [14] and in test [15] was greater than 100 µM throughout.

For the molecule `COC(=O)C1SC[C@H]2C(=O)N(c3ccccc3)C(=O)N12` (stereo not given in full), the TGI in test [1], in test [2], in [3], in [4], in [5] and in test [6] was greater than 100 µM throughout. Moreover, the TGI in test [7], in [8], in test [9], in [10], in test [11] and in test [12] was greater than 100 µM each time. Further, the TGI in [13], in test [14] and in test [15] was greater than 100 µM in each case.

Consider `COc1ccc2c(c1)c(=O)c1c(NCCCN(C)C)ccc3ncn2c31`, for which the TGI in [1] turned out to be 24.2 µM; in [2] it was 45.3 µM; in test [3], 27 µM; in test [4], 14.7 µM; in test [5] it was 25.1 µM; in test [6], 19.5 µM. Further, the TGI in [7] was determined as 12.9 µM; in test [8], 8.4 µM; in test [9] it was 18.8 µM; in [10], 13.9 µM; in test [11], 16.4 µM; in [12], 13 µM. Further, the TGI was 15.6 µM in test [13], greater than 27.7 µM in [14] and 19.8 µM in test [15].

With `Cc1ccc(NC(=S)N=Nc2c(O)[nH]c3ccccc23)cc1`, the TGI in test [1], in test [2], in test [3], in test [4], in [5] and in [6] was greater than 100 µM in each case. In addition, the TGI in test [7], in test [8], in test [9], in test [10], in [11] and in test [12] was greater than 100 µM each time. Further, the TGI in test [13], in test [14] and in test [15] was greater than 100 µM each time.

For the molecule `C[C@H]1[C@H](C)CC[C@]2(C(=O)OC3OC(CO)C(O)C(O)C3O)CC[C@]3(C)C(=CC[C@@H]4[C@@]5(C)C[C@@H](O)[C@@H]6OC(=O)c7cc(O)c(O)c(O)c7-c7c(cc(O)c(O)c7O)C(=O)OC[C@]6(CO)[C@@H]5CC[C@]43C)[C@H]12` (stereo not given in full), the TGI is greater than 100 µM in test [1]; 69.2 µM in test [2]; greater than 100 µM in [3]; greater than 100 µM in test [4]; 87.8 µM in test [5]; greater than 100 µM in test [6]. The TGI in [7] is greater than 100 µM; in test [8] it was 21.8 µM; in [9], 51.1 µM; in test [10], 66.9 µM; in [11], greater than 100 µM; in test [12], 40.1 µM. Besides, the TGI in [13], in [14] and in test [15] was greater than 100 µM in each case.
